“Also recorded” adds a separate entry of the source.
What was measured:
[1] = biological target: GDP-bound KRAS^G12D (Homo sapiens, UniProt P01116, G12D); assay: MST binding, GDP-bound KRAS G12D; details: GDP state
Excerpt: FIGS. 1A-1D show representative data for the predicted binding mode and measured affinity of disclosed compound 11 to KRAS. (FIG. 1A) Structure of the catalytic domain of KRAS used for the virtual screening. Lobe1 (residues 1-86) and lobe2 (residues 87-166) are highlighted in different colors, as well as switches 1 (residues 30-40) and 2 (residues 60-75). The location of the target allosteric pocket p1 is indicated. (FIG. 1B) Chemical structure of compound 11. (FIG. 1C) Predicted binding pose of compound 11, with the key residues that make polar or vdW contacts with the ligand labeled. (FIG. 1D) Microscale thermophoresis (MST) experiments indicating direct binding of compound 11 to KRAS, along with dissociation constants (KD) derived from the curves. Changes in fluorescence upon titration of […] KRAS with increasing concentration of compound are shown: KRAS^WT (red), KRAS^G12C (green), KRAS^G12D (purple) and KRAS^Q61M (blue), each bound to the non-hydrolyzable GTP analogue, guanylyl imidodiphosphate (GNP). The same experiments indicated no binding to GDP-bound KRAS^G12D and KRAS^WT as well as Rap1B, which was used as control. […]

[2] = biological target: KRAS (Homo sapiens, UniProt P01116); assay: Nucleotide release assay (intrinsic and SOS-mediated); format: biochemical
Procedure: (FIG. 6A) Chemical structure of compound 13, an analogue of 11 without a benzene on the pyrimidine core. (FIG. 6B) Predicted binding pose of compound 13. […] See legend of FIGS. 2A-2C for additional details. […] (FIG. 6D) Fluorescence polarization of ^BGTP-γ-SKRAS (0.5 μM) with increasing concentration of GST-Raf^RBD in the absence (red) and presence (green) of 20 μM compound 13. (FIG. 6E) Level of GFP-KRAS^G12D pulled down by GST-Raf^RBD after treatment of whole cell lysates with 10 μM of compound 13 (representative Western blots are shown at the top). The RBD sequence length was 1-149 in the fluorescence polarization assay (FIG. 6D) and 51-131 in the pull-down assay (FIG. 6E). (FIG. 6F) Intrinsic (red) and SOS-mediated (blue) nucleotide release rates were determined. Briefly, fluorescence intensity data obtained in a mixture of 0.5 μM KRAS (and SOS), 100 μM GTP and 0 or 50 μM of compound 13 (top), derived from the changes in during the reaction KRAS^BGDP+GTP→KRAS^GTP+BGDP (bottom). Rates were calculated using single exponential fits starting from 120 s, and are show in the inset to the right of the graph.
Nucleotide exchange and release assays. Loading of fluorescent-labeled GDP (BODIPY-GDP; BGDP from hereon) to KRAS was conducted following previous reports (23, 47), with minor modifications. Purified KRAS was buffer-exchanged in NAP-5 column (GE Life Sciences) in low Mg^2+ buffer (25 mM Tris pH 7.5, 50 mM NaCl, and 0.5 mM MgCl2). The eluate was incubated with 10-fold molar excess of BGDP (Life Technologies) in the presence of 5 mM EDTA and 1 mM DTT for 1.5 h at 20° C. in the dark. […] The concentration of ^BGDPKRAS was determined using Bradford assay and a BGDP standard curve. Then the effect of ligands on the intrinsic rate of nucleotide release was monitored using the decrease in fluorescence with time as BGDP dissociates from KRAS in a 100 μL reaction mixture (96-well plate) of 0.5 μM B^GDPKRAS, 100 μM GTP and varying concentrations of ligand (0 to 25 μM); GTP was added just before measurements. To measure the rate of SOS-mediated nucleotide release, 0.5 μM SOS (residues 564-1049, Cytoskeleton Inc) was added after adding GTP, and fluorescence was immediately read (excitation: 485 nm, emission: 510 nm) using Tecan Infinite M200 plate reader. Intrinsic and SOS-mediated nucleotide exchange rates were monitored with the fluorescence intensity increase of BGTP as it displaces GDP from KRAS. […] Experiments were conducted with minimal light and the reaction was monitored for 2 h at room temperature. Fluorescence intensities were normalized at 120 s and the traces were fit with linear or single exponential functions (Igor Pro, Wavemetrics).
The effect of compound 11 on intrinsic and GEF-dependent nucleotide release and exchange reactions was determined. […]

KRAS, sequence (P01116 1-188 isoform P01116-2): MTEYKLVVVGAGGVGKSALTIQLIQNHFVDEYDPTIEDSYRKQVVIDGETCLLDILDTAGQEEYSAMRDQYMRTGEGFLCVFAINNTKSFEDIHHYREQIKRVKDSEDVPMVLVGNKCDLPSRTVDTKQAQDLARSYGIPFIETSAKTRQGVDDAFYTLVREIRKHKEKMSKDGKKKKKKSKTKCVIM
GDP-bound KRAS^G12D, sequence (P01116 1-188 isoform P01116-2 G12D): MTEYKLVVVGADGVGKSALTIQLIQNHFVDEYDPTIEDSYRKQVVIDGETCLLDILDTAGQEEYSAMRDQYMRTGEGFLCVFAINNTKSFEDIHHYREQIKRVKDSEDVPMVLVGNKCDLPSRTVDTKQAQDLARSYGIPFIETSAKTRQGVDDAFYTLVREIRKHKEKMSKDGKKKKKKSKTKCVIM

SMILES | binding (in words) [1] | effect on SOS-mediated nucleotide release rate [2] | effect on intrinsic nucleotide release rate [2] | effect on SOS-mediated nucleotide release rate ([2]; 50 μM compound) | effect on intrinsic nucleotide release rate ([2]; 50 μM compound)
Cc1nn2c(N3CCN(CCO)CC3)cc(-c3ccccc3)nc2c1-c1ccccc1 [Compound 11, 2-[4-(8-methyl-3,9-diphenyl-2,6,7-triazabicyclo[4.3.0]nona-2,4,7,9-tetraen-5-yl)piperazin-1-yl]ethanol] | no binding | slightly reduced; also recorded: only modestly decreased | no effect |  | 
Cc1cc(N2CCN(CCO)CC2)n2nc(C)c(-c3ccccc3)c2n1 [Compound 13] | does not bind |  |  | dramatically increased | dramatically increased
